# From US20240197760A1, “ACTIVATORS OF INTEGRATED STRESS RESPONSE PATHWAY FOR PROTECTION AGAINST FERROPTOSIS” (Burke Neurological Institute, priority 2021, published 2024)
# Columns and labels:
# [1] = test system: Creba, Crebb, Bdnf exon IV; experiment: Plasticity gene expression in human i.p.s. derived mature cortical neurons; type: cell-based; conditions: increasing concentrations, 6 h
# Method: Human iPSC line (C1-1) was previously generated from skin biopsy samples of newborn and had been fully characterized and passaged on MEF feeder layers (Wen et al. 2014). All studies followed institutional IRB and ISCRO protocols approved by University of Pennsylvania Perelman School of Medicine. Human iPSCs were differentiated into cortical neurons following the previously established protocol (Wen et al. 2014). Briefly, hiPSCs colonies were detached from the feeder layer with 1 mg/ml collagenase (Thermo Fisher Scientific) treatment for 30 min and suspended in embryonic body (EB) medium, consisting of bFGF-free iPSC medium supplemented with 2 μM Dorsomorphin (Tocris) and 2 μM A-83 (Tocris), in non-treated polystyrene plates for 4 days with a daily medium change. […]
# The gene expression of Bndf exon IV, Creba and Crebb in human i.p.s. derived neurons were also assessed using two step qPCR. […] Quantitative RT-PCR was then performed using SYBR green (Applied Biosystems) and the StepOnePlus™ Real-Time PCR System (Applied Biosystems). Quantitative levels for all genes were normalized to the housekeeping gene GAPDH and expressed relative to the relevant control samples. […]
# [2] = test system: Trib3 promoter, Bdnf promoter; experiment: Promoter reporter luciferase assay in primary neurons; type: cell-based, mouse; conditions: 2-DG 9 h treatment, reporter in mouse primary neurons
# Method: Primary neurons were co-transfected with various plasmids such as different Bdnf exon promoters each tagged with firefly luciferase or Trib3 promoter tagged with firefly luciferase and pTK-renilla luciferase plasmid at 1:10 ratio using Lipofectamine 2000 (Thermo Fisher Scientific, catalog number—11668019) according to the manufacturer's instructions to control for transfection efficiency. […] Thereafter, luciferase activity was measured using dual luciferase assay kit (Promega) and bioluminometer (MDS Analytical Technologies). Final luciferase activity was calculated by normalizing firefly luciferase activity with Renilla luciferase activity and then the valued were converted to fold change with respect to control.
# [3] = test system: triple transgenic model of AD; conditions: cited from earlier work
# hippocampal slices = experiment: Long term potentiation (fEPSP) in submerged hippocampal slices; parameters: species or system mouse; conditions: 10 mM for 6 h in ACSF
# Description: Brains were quickly removed from mice sacrificed by cervical dislocation and placed in cold artificial cerebrospinal fluid (ACSF) (bubbled with 95% O2/5% CO2) containing (in mM): 124 NaCl, 4 KCl, 1 Na2HPO4, 25 NaHCO3, 2 CaCl2, 2 MgCl2, and 10 glucose. The pH and osmolarity of the solution were 7.4 and 310 mOsm/L, respectively. The hippocampus was isolated and placed on a mechanical tissue chopper to produce transverse hippocampal slices of 400 μm thickness. […] Hippocampal slices were allowed to recover for at least 90 min prior to beginning the experiment. For recordings, glass electrodes were filled with ACSF and positioned in the CA1 stratum radiatum to record fEPSPs evoked by local stimulation (0.1 ms) of Schaffer collateral fibers using a bipolar concentric electrode placed laterally to the recording electrode (˜150 μm). For LTP recordings, the voltage intensity of the stimulation test pulse (square pulse, 100 us duration) for each slice was determined to be the voltage intensity that had generated 30-40% of the maximum slope obtained using input-output relationships. Facilitation was calculated as the ratio of the slopes of the second and first fEPSPs, and plotted as a function of the inter-pulse duration. For LTP, a test pulse was applied every minute. […] Residual potentiation was calculated as the average of the last 15 min of 2 h of recordings.
structure (smiles),measurement,setting,value
"OC[C@H]1OC(O)C[C@@H](O)[C@@H]1O (stereo partly drawn) [2-DG, (4R,5S,6R)-6-(hydroxymethyl)oxane-2,4,5-triol]","gene plasticity response (Creba, Crebb, Bdnf exon IV mRNA)",[1],gene plasticity response of neurons was still the same
same,Trib3 promoter activity with or without mutation in ATF4 binding site,[2],ATF4 binding site mutation completely blocked the 2-DG led induction of Trib3 promoter activity
same,brain energy metabolism and amyloid pathology,[3],improve brain energy metabolism and amyloid pathology
same,LTP in submerged hippocampal slices,hippocampal slices,significant increase
